Results published in patent publication US20240043435A1, “TYK-2 INHIBITOR” (BEIGENE, LTD., priority 2020, published 2024).

What was measured:
[1] = target: T1, TYK2-JH2 (aa 575-869, in-house) protein (Homo sapiens, UniProt P29597); assay: TYK2-JH2 biochemical assay (HTRF probe displacement); format: binding; settings: Biochemical assay; read-out: TYK2-JH2 IC50
T1 construct: TYK2-JH2 (aa 575-869, in-house) protein; made in house
Procedure, shortened: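 HTRF probe-displacement format: compound dilutions (10 points, 5-fold, from 500 uM in DMSO at 500×) were combined with 0.2 nM TYK2-JH2 protein for 0.5 h at room temperature in HEPES pH 7.5 buffer with MgCl2, BSA, DTT and Brij-35. Percent inhibition came from the 615/665 nm fluorescence ratio, fitted to a four-parameter logistic for IC50.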

[2] = test system: JAK2, TYK2/p-STAT4 (Tyr693) activated by IL-12 in NK-92 cell line; assay: IL-12-JAK2, TYK2/p-STAT4 (Tyr693) inhibition IC50 cellular assay; format: cell-based; settings: NK92, Cellular assay; read-out: pSTAT4/IL-12 IC50
Procedure, shortened: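 p-STAT4 (Tyr693) in lysates was measured by AlphaLISA SureFire Ultra after a 30 min IL-12 challenge (40 ng/ml final) at 37° C. Overnight-starved, IL-2-free NK-92 cells had been pretreated 1 h with compound at 10000 to 0.61 nM (4-fold, 8 points). IC50 values came from four-parameter logistic fitting.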

pSTAT5/GM-CSF = pSTAT5/GM-CSF cellular assay (JAK2 selectivity); format: cell-based; settings: for Selectivity fold (TYK2/JAK2): pSTAT5/GM-CSF IC50 over pSTAT4/IL-12 IC50

T1 sequence (P29597 575-869): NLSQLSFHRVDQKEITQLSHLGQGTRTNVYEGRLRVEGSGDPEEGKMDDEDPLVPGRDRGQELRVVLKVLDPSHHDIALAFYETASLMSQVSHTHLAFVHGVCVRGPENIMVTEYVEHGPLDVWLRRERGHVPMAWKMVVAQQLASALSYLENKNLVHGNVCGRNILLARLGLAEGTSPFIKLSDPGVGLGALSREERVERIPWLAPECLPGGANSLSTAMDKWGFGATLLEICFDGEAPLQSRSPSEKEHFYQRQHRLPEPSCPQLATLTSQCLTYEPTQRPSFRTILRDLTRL

Row | SMILES | IC50 [1] | IC50 [2] | IC50 (pSTAT5/GM-CSF) | Selectivity fold (TYK2/JAK2) (pSTAT5/GM-CSF)
1 | CC(=O)Nc1cc(Nc2cccc(S(C)(=O)=O)n2)c(-c2ccn(C3CC3)n2)cn1 [Example M1, N-(5-(1-cyclopropyl-1H-pyrazol-3-yl)-4-((6-(methylsulfonyl)pyridin-2-yl)amino)pyridin-2-yl)acetamide] | 0.055 nM | 0.174 nM | 2.01 µM | 11551 fold
2 | CC(=O)Nc1cc(Nc2cc(OC(C)C)cc(S(C)(=O)=O)n2)c(-c2ccn(C3CC3)n2)cn1 [Example M2, N-(5-(1-cyclopropyl-1H-pyrazol-3-yl)-4-((4-isopropoxy-6-(methylsulfonyl)pyridin-2-yl)amino)pyridin-2-yl)acetamide] | 0.032 nM | 1.04 nM | > 10 µM | >9615 fold
3 | CC(=O)Nc1cc(Nc2cc(C)cc(S(C)(=O)=O)n2)c(-c2ccn(C3CC3)n2)cn1 [Example M3, N-(5-(1-cyclopropyl-1H-pyrazol-3-yl)-4-((4-methyl-6-(methylsulfonyl)pyridin-2-yl)amino)pyridin-2-yl)acetamide] | 0.031 nM | 0.526 nM | 8.35 µM | 15876 fold
4 | COCCOc1cc(Nc2cc(NC(C)=O)ncc2-c2ccn(C3CC3)n2)nc(S(C)(=O)=O)c1 [Example M4, N-(5-(1-cyclopropyl-1H-pyrazol-3-yl)-4-((4-(2-methoxyethoxy)-6-(methylsulfonyl)pyridin-2-yl)amino)pyridin-2-yl)acetamide] | 0.026 nM | 0.681 nM | > 10 µM | >14684 fold
5 | CCn1ccc(-c2cnc(NC(C)=O)cc2Nc2cccc(S(C)(=O)=O)n2)n1 [Example M5, N-(5-(1-ethyl-1H-pyrazol-3-yl)-4-((6-(methylsulfonyl)pyridin-2-yl)amino)pyridin-2-yl)acetamide] | 0.032 nM | 0.189 nM | 1.55 µM | 8206 fold
6 | CCn1ccc(-c2cnc(NC(C)=O)cc2Nc2cc(OC(C)C)cc(S(C)(=O)=O)n2)n1 [Example M6, N-(5-(1-ethyl-1H-pyrazol-3-yl)-4-((4-isopropoxy-6-(methylsulfonyl)pyridin-2-yl)amino)pyridin-2-yl)acetamide] | 0.032 nM | 1.21 nM | > 10 µM | >8264 fold
7 | CCn1ccc(-c2cnc(NC(C)=O)cc2Nc2cc(COC)cc(S(C)(=O)=O)n2)n1 [Example M7, N-(5-(1-ethyl-1H-pyrazol-3-yl)-4-((4-(methoxymethyl)-6-(methylsulfonyl)pyridin-2-yl)amino)pyridin-2-yl)acetamide] | 0.026 nM | 0.537 nM | > 10 µM | >18621 fold
8 | CCn1ccc(-c2cnc(NC(C)=O)cc2Nc2cccc(S(C)(=O)=O)c2)n1 [Example M8, N-(5-(1-ethyl-1H-pyrazol-3-yl)-4-((3-(methylsulfonyl)phenyl)amino)pyridin-2-yl)acetamide] | 0.04 nM | 1.64 nM | > 10 µM | >6097 fold
9 | CCn1ccc(-c2cnc(NC(C)=O)cc2Nc2cc(OC)cc(S(C)(=O)=O)c2)n1 [Example M9, N-(5-(1-ethyl-1H-pyrazol-3-yl)-4-((3-methoxy-5-(methylsulfonyl)phenyl)amino)pyridin-2-yl)acetamide] | 0.035 nM | 7.06 nM | > 10 µM | >1416 fold
10 | CCn1ccc(-c2cnc(NC(C)=O)cc2Nc2cc(C)cc(S(C)(=O)=O)c2)n1 [Example M11, N-(5-(1-ethyl-1H-pyrazol-3-yl)-4-((3-methyl-5-(methylsulfonyl)phenyl)amino)pyridin-2-yl)acetamide] | 0.034 nM | 9.03 nM | > 10 µM | >1107 fold
